Laboratory results published in the supplement of paper PMC8741786.
Values after ≈ are worked out from the molar mass of the structure shown.

Experiments:
Assay in all cases: minimum inhibitory concentration (ETEST)
[1] = test system: Neisseria subflava/flavescens/perflava; details: population: general population, antibiotic use in previous 6 months: No
Procedure: (§1)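 Oropharyngeal Neisseria isolates from MSM and employees in Belgium were identified to species by MALDI-TOF MS. MICs of azithromycin, ceftriaxone and ciprofloxacin were determined by ETEST on GC agar after 24 h at 36.5 °C and 5-7% CO2, in mg/L. Values beyond the strip range are reported as >256 (azithromycin) or <0.016 (ceftriaxone); isolates that did not grow are NA.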

Neisseria oralis = details: population: general population, antibiotic use in previous 6 months: No
Procedure: as §1

Neisseria mucosa/macacae = test system: Neisseria mucosa/macacae
Procedure: as §1

Neisseria gonorrhoeae = details: isolate id (sample isolate): 19113052_3; population: MSM; antibiotic use in previous 6 months: No
Procedure: as §1

CO/N=C(\C(=O)N[C@@H]1C(=O)N2C(C(=O)O)=C(CSc3nc(=O)c(O)nn3C)CS[C@H]12)c1csc(N)n1 [ceftriaxone]
Details	minimum inhibitory concentration [µg/mL]
Neisseria oralis, isolate id (sample isolate): Co000761_7	0.064 (≈ 0.115 µM)
Neisseria oralis, isolate id (sample isolate): Co000763_1	0.032 (≈ 0.0577 µM)
Neisseria oralis, isolate id (sample isolate): Co000766_2	0.023 (≈ 0.0415 µM)
Neisseria oralis, isolate id (sample isolate): Co000770_1	0.064 (≈ 0.115 µM)
Neisseria oralis, isolate id (sample isolate): Co000774_1	0.032 (≈ 0.0577 µM)
Neisseria oralis, isolate id (sample isolate): Co000776_1	0.047 (≈ 0.0847 µM)
Neisseria oralis, isolate id (sample isolate): Co000776_1.1	0.047 (≈ 0.0847 µM)
Neisseria oralis, isolate id (sample isolate): Co000779_2	0.094 (≈ 0.169 µM)
Neisseria oralis, isolate id (sample isolate): Co000790_5	0.064 (≈ 0.115 µM)
[1], isolate id (sample isolate): Co000774_2	0.016 (≈ 0.0289 µM)
[1], isolate id (sample isolate): Co000775_1	0.032 (≈ 0.0577 µM)
[1], isolate id (sample isolate): Co000775_2	0.047 (≈ 0.0847 µM)
[1], isolate id (sample isolate): Co000775_3	0.094 (≈ 0.169 µM)
[1], isolate id (sample isolate): Co000776_2	0.125 (≈ 0.225 µM)
[1], isolate id (sample isolate): Co000776_3	0.125 (≈ 0.225 µM)
[1], isolate id (sample isolate): Co000777_1	0.064 (≈ 0.115 µM)
[1], isolate id (sample isolate): Co000777_2	0.047 (≈ 0.0847 µM)
[1], isolate id (sample isolate): Co000777_4	0.047 (≈ 0.0847 µM)
[1], isolate id (sample isolate): Co000778_1	0.094 (≈ 0.169 µM)
[1], isolate id (sample isolate): Co000778_2	0.047 (≈ 0.0847 µM)
[1], isolate id (sample isolate): Co000778_3	0.094 (≈ 0.169 µM)
[1], isolate id (sample isolate): Co000780_4	0.125 (≈ 0.225 µM)
[1], isolate id (sample isolate): Co000781_1	0.094 (≈ 0.169 µM)
[1], isolate id (sample isolate): Co000781_3	0.064 (≈ 0.115 µM)
[1], isolate id (sample isolate): Co000781_4	0.094 (≈ 0.169 µM)
[1], isolate id (sample isolate): Co000782_2	0.047 (≈ 0.0847 µM)
[1], isolate id (sample isolate): Co000782_3	0.25 (≈ 0.451 µM)
[1], isolate id (sample isolate): Co000782_4	0.047 (≈ 0.0847 µM)
[1], isolate id (sample isolate): Co000783_1	0.125 (≈ 0.225 µM)
[1], isolate id (sample isolate): Co000783_2	0.032 (≈ 0.0577 µM)
[1], isolate id (sample isolate): Co000783_5	0.032 (≈ 0.0577 µM)
[1], isolate id (sample isolate): Co000784_1	0.023 (≈ 0.0415 µM)
[1], isolate id (sample isolate): Co000784_2	0.047 (≈ 0.0847 µM)
[1], isolate id (sample isolate): Co000784_5	0.032 (≈ 0.0577 µM)
[1], isolate id (sample isolate): Co000785_1	0.047 (≈ 0.0847 µM)
[1], isolate id (sample isolate): Co000785_2	0.047 (≈ 0.0847 µM)
[1], isolate id (sample isolate): Co000785_3	0.064 (≈ 0.115 µM)
[1], isolate id (sample isolate): Co000785_4	0.064 (≈ 0.115 µM)
[1], isolate id (sample isolate): Co000786_1	0.032 (≈ 0.0577 µM)
[1], isolate id (sample isolate): Co000786_2	0.064 (≈ 0.115 µM)
[1], isolate id (sample isolate): Co000787_1	0.032 (≈ 0.0577 µM)
[1], isolate id (sample isolate): Co000787_2	0.023 (≈ 0.0415 µM)
[1], isolate id (sample isolate): Co000787_4	0.016 (≈ 0.0289 µM)
[1], isolate id (sample isolate): Co000788_2	0.047 (≈ 0.0847 µM)
[1], isolate id (sample isolate): Co000788_3	0.047 (≈ 0.0847 µM)
[1], isolate id (sample isolate): Co000788_5	0.016 (≈ 0.0289 µM)
[1], isolate id (sample isolate): Co000789_1	0.032 (≈ 0.0577 µM)
[1], isolate id (sample isolate): Co000790_2	0.032 (≈ 0.0577 µM)
[1], isolate id (sample isolate): Co000790_4	0.047 (≈ 0.0847 µM)

Neisseria mucosa/macacae
Details	minimum inhibitory concentration [µg/mL]
isolate id (sample isolate): 19041762_2, population: MSM, antibiotic use in previous 6 months: Yes	0.032 (≈ 0.0577 µM)
isolate id (sample isolate): 19051904_1, population: MSM, antibiotic use in previous 6 months: Yes	0.047 (≈ 0.0847 µM)
isolate id (sample isolate): 19052394_2, population: MSM, antibiotic use in previous 6 months: Yes	0.032 (≈ 0.0577 µM)
isolate id (sample isolate): 19062968_1, population: MSM, antibiotic use in previous 6 months: Yes	0.064 (≈ 0.115 µM)
isolate id (sample isolate): 19081774_2, population: MSM, antibiotic use in previous 6 months: No	0.094 (≈ 0.169 µM)
isolate id (sample isolate): 19111422_4, population: MSM, antibiotic use in previous 6 months: No	0.032 (≈ 0.0577 µM)
isolate id (sample isolate): 19111422_7, population: MSM, antibiotic use in previous 6 months: No	0.032 (≈ 0.0577 µM)
isolate id (sample isolate): Co000770_5, population: general population, antibiotic use in previous 6 months: No	0.047 (≈ 0.0847 µM)
isolate id (sample isolate): Co000771_4, population: general population, antibiotic use in previous 6 months: No	0.064 (≈ 0.115 µM)
isolate id (sample isolate): Co000772_3, population: general population, antibiotic use in previous 6 months: No	0.032 (≈ 0.0577 µM)
isolate id (sample isolate): Co000773_3, population: general population, antibiotic use in previous 6 months: No	0.032 (≈ 0.0577 µM)
isolate id (sample isolate): Co000779_1, population: general population, antibiotic use in previous 6 months: No	0.125 (≈ 0.225 µM)
isolate id (sample isolate): Co000783_3, population: general population, antibiotic use in previous 6 months: No	0.032 (≈ 0.0577 µM)
isolate id (sample isolate): Co000783_6, population: general population, antibiotic use in previous 6 months: No	0.032 (≈ 0.0577 µM)
isolate id (sample isolate): Co000787_3, population: general population, antibiotic use in previous 6 months: No	0.094 (≈ 0.169 µM)
isolate id (sample isolate): Co000788_1, population: general population, antibiotic use in previous 6 months: No	0.032 (≈ 0.0577 µM)
isolate id (sample isolate): Co000788_4, population: general population, antibiotic use in previous 6 months: No	0.032 (≈ 0.0577 µM)

Details	minimum inhibitory concentration [µg/mL]
Neisseria gonorrhoeae	< 0.016
